Patent US20230264009A1, “DISINFECTING CAP KIT FOR LUER ACCESS DEVICES” (SterileCare Inc., priority 2022, published 2023)

Key:
MRSA ON184 biofilm = assay: MBEC Assay, 48-h biofilm, 24 h exposure; type: cell-based, Staphylococcus aureus
Method: A biofilm cultivation cell composition was provided. This fifth composition was created using an MBEC Assay® biofilm inoculator, consisting of a polystyrene lid with 96 downward-protruding pegs and a corresponding base used to grow biofilms. A standardized inoculum was diluted in an appropriate biofilm growth medium to achieve a viable cell count of 1.5 × 10^6 CFU/mL of bacterial cells or […] CFU/mL of fungal cells. Then, 150 µL of this inoculum was transferred into each appropriate well, and the peg lids were inserted into the microtiter plates. The plates were sealed with Parafilm and were incubated at optimum temperature for 48 h with slight rocking for bacteria and shaking at 200 rpm for fungal strains. After incubation, the peg lid was removed from the base and rinsed twice with sterile phosphate-buffered saline (PBS) for 2 min to remove loosely attached non-sessile cells. Before the antimicrobial challenge, the pegs in column 1 (n = 8) were considered the biofilm growth control; these pegs were removed from the lids, placed into 200 µL of recovery medium, and analyzed for starting biofilm cell numbers as described below. […] MBEC values were determined as the minimum concentration of antimicrobials that yielded a viable cell count at or lower than the 125 CFU/mL detection limit.

[1] = test system: 48-h old biofilms of test organisms; assay: Rapid biofilm eradication, 2 h exposure; type: cell-based; conditions: alone at the MBEC
Method: Determining rapid biofilm eradication by tetrasodium EDTA, ethanol, and chlorhexidine HCl alone and in combination was performed. After biofilm formation, control pegs (n = 6) were removed and analyzed to determine the starting biofilm cell numbers via the drop dilution method. The 48-h old biofilms on the pegs were exposed to different concentrations of test antimicrobials, dissolved in an appropriate growth medium, for two h to evaluate their efficacy alone and in combination. Antimicrobial solutions tested against each organism included each agent alone at the MBEC, double combinations at the FBEC, and triple combinations ranging from 5 to 20% ethanol, 2.5-5 µg/mL chlorhexidine HCl and 1- 3% tetrasodium EDTA. Following treatment, pegs were washed twice with sterile PBS, and the biofilm cells were dislodged into recovery medium and enumerated as described above.
The method for rapid biofilm eradication ability of test antimicrobials alone and in combination against 48-h-old biofilms within two h exposure time included (1) choosing different concentrations of test antimicrobials to assess their potency in eradicating preformed biofilms of study organisms within two h. Then (2) the quantitative recovery from biofilms following exposure to the antimicrobial solutions for bacterial strains (FIGS. 6A-6C) and fungal strains (FIG. 7) was evaluated.

S. epidermidis SK9 = assay: Checkerboard titration, FICI; type: cell-based, Staphylococcus epidermidis
Method: (§1) A fourth composition and solution included tetrasodium EDTA with ethanol or chlorhexidine HCl. This fourth composition and solution were created using checkerboard titration methods using micro broth dilution in 96-well microtiter plates. The concentrations of antimicrobials used were based on previously determined MIC values. Briefly, 200 µL of two-fold dilutions of tetrasodium EDTA and ethanol or chlorhexidine HCl were prepared in MH or MH II broth with standardized cell suspension. […] Microtiter plates were incubated at 37° C. for 24 h, and the results were analyzed. Each test was performed in duplicate and included a growth control without adding any antimicrobials.

C. albicans ON47 biofilm = assay: FBEC index, checkerboard dilution on biofilms; type: cell-based, Candida albicans
Method: In step (4), microtiter plates are incubated at 37° C. for 24 h. then (6), after incubation, the bacterial and fungal cells were dislodged from the pegs into the recovery medium described above.
Three 10-µL aliquots, for a total of 30 µL from each well of recovery medium, were spotted on MH agar plates and incubated for 24 h at 37° C. […] The FBEC determination is a modification of the FICI.

[2] = test system: Pseudomonas aeruginosa SK1; assay: MIC, micro broth dilution; type: cell-based; conditions: alone; P. aeruginosa SK1; 24 h
Method: (§2) An assay was made using a minimum inhibitory concentration (MIC) and minimum bactericidal concentration (MBC) and minimum fungicidal concentration (MFC) determination. The MIC was determined by the micro broth dilution method in 96-well plates. Serial two-fold dilutions of tetrasodium EDTA (from 2% to 0.015%), ethanol (from 50% to 0.1%) and chlorhexidine HCl (from 100 µg/mL to 0.025 µg/mL) were prepared in MH broth with a final volume of 90 µL per well. A 10 µL containing 1 × 10^5 bacterial cells or 2 × 10^3 fungal cells were added to each well. The inoculated plates were covered with a lid, sealed with Parafilm, and incubated for 24 h at 37° C. with slight rocking on a tilting platform shaker. After incubation, the optical density at 600 nm (OD 600 ) of the cultures in each well was measured using an xMark™ Microplate Absorbance Spectrophotometer (Bio-Rad). […] MBCs and MFCs were determined by transferring 100 µL from each well with no apparent growth onto appropriate agar plates, followed by incubation for 24 h at 37° C.

Proteus mirabilis ON153 [3] = assay: MIC, micro broth dilution; type: cell-based; conditions: alone; P. mirabilis ON153; 24 h
Method: as §2

[4] = test system: Staphylococcus epidermidis ON170; assay: MIC, micro broth dilution; type: cell-based; conditions: alone; S. epidermidis ON170; 24 h
Method: as §2

[5] = test system: Stenotrophomonas maltophilia ON17; assay: MIC, micro broth dilution; type: cell-based; conditions: alone; S. maltophilia ON17; 24 h
Method: as §2

Serratia marcescens SK2 = assay: MIC, micro broth dilution; type: cell-based; conditions: alone; S. marcescens SK2; 24 h
Method: as §2

[6] = test system: Staphylococcus aureus ON89; assay: MIC, micro broth dilution; type: cell-based; conditions: alone; S. aureus ON89; 24 h
Method: as §2

Candida albicans SK4b = assay: MIC, micro broth dilution; type: cell-based; conditions: alone; C. albicans SK4b; 24 h
Method: as §2

Escherichia coli ON29 = assay: MIC, micro broth dilution; type: cell-based; conditions: alone; E. coli ON29; 24 h
Method: as §2

C. albicans ON47 = assay: Checkerboard titration, FICI; type: cell-based, Candida albicans
Method: as §1

[7] = test system: Pseudomonas aeruginosa SK1; assay: MBC/MFC determination; type: cell-based; conditions: alone; P. aeruginosa SK1
Method: as §2

Proteus mirabilis ON153 [8] = assay: MBC/MFC determination; type: cell-based; conditions: alone; P. mirabilis ON153
Method: as §2

[9] = test system: Staphylococcus epidermidis ON170; assay: MBC/MFC determination; type: cell-based; conditions: alone; S. epidermidis ON170
Method: as §2

[10] = tetrasodium EDTA + chlorhexidine HCl

O=C([O-])CN(CCN(CC(=O)[O-])CC(=O)[O-])CC(=O)[O-].[Na+].[Na+].[Na+].[Na+] [EDTA, tetrasodium EDTA]
MBEC (MRSA ON184 biofilm): 2 % w/v | Eradication of preformed biofilms [1]: failed to eradicate | Concentration in combination giving FICI (S. epidermidis SK9; [10]): 0.015 % w/v | Concentration in combination giving FICI (S. epidermidis SK9; tetrasodium EDTA + ethanol): 0.015 % w/v | FBEC (concentration in combination) (C. albicans ON47 biofilm; [10]): 0.031 % w/v | FBEC (concentration in combination) (C. albicans ON47 biofilm; tetrasodium EDTA + ethanol): 0.125 % w/v | MIC [2]: 0.25 % w/v | MIC (Proteus mirabilis ON153 [3]): 1 % w/v | MIC [4]: 0.063 % w/v | MIC [5]: 0.063 % w/v | MIC (Serratia marcescens SK2): 2 % w/v | MIC [6]: 0.063 % w/v | MIC (Candida albicans SK4b): 1 % w/v | MIC (Escherichia coli ON29): 0.5 % w/v | Concentration in combination giving FICI (C. albicans ON47; [10]): 0.125 % w/v | Concentration in combination giving FICI (C. albicans ON47; tetrasodium EDTA + ethanol): 0.25 % w/v | MBC/MFC [7]: 1 % w/v | MBC/MFC (Proteus mirabilis ON153 [8]): 2 % w/v | MBC/MFC [9]: 0.5 % w/v
